# Laboratory results from patent US20100197743A1, “Use of sulphur-containing heteroaromatic acid analogues” (Bayer CropScience AG, priority 2008, published 2010).
# Tested on: black Sigatoka fungus Mycosphaerella figiensis
# Experiment: Field study of black Sigatoka control on Cavendish bananas (Stover method)
# Assay type: in vivo, Mycosphaerella figiensis on Cavendish bananas
# Design: key to YLI last determ. (youngest infected leaf): leaf number of youngest leaf showing Sigatoka symptoms; YLI AUDPC / SEV AUDPC: unit not given here
# Settings: for SEV last determ. (severity of the disease) / YLI last determ. (youngest infected leaf): foliar spray, eight applications at seven-day intervals, last determination Oct. 23, 2008; for SEV ABBOTT: % severity calculated as described by ABBOTT; for SEV AUDPC / YLI AUDPC: area under the disease progress curve over the complete study period
# Text: If the banana disease caused by the black Sigatoka fungus Mycosphaerella figiensis is not controlled, the latter can destroy the banana leaves and greatly reduce the yield. To control Sigatoka, commercially available fungicides are used which are usually applied to banana plants by foliar application.
# It was intended to determine whether isotianil is capable of controlling the black Sigatoka infection with reference to studies carried out on Cavendish bananas in Devao del Norte in the southern Philippines.
# Compound I-2 as defined above was formulated as a suspension concentrate formulation (200 SC) with Banol mineral oil and water in a ratio of 0.5 l of compound I-2 (200 SC), 5 l of oil and 74 l of water. The emulsifier used was 0.05 l of Lutensol so as to maintain the oil/water mixture as a stable emulsion.
# After the formulation procedure, the mixture was sprayed onto banana trees using engine-driven spray mist applicators which applied a total volume of 80 l/ha.
# This was followed by eight applications at seven-day intervals between Aug. 28 and Oct. 16, 2008. The isotianil application rate was 50, 75 and 100 g of a.i./ha, respectively.
# For comparison with the isotianil plots, one plot was left untreated, and a further plot was sprayed with Sico (difenconazole 250 SC), a commercially available fungicide which is used for controlling black Sigatoka. Sico was sprayed together with Banol oil and Lutensol at an application rate of 100 g of a.i./ha, as above.
# Each plot consisted of two banana plants at the BBCH growth stage 1056-1100. Each treatment consisted of three replications.
# After the application, the disease level on the banana leaves was determined according to several parameters which are defined by the “Stover method” (Stover, 1971 R. H. Stover, A proposed international scale for estimating intensity of banana leaf spot, Tropical Agriculture).
# Youngest infected leaf (YLI): This parameter records which leaf of the plant was the youngest leaf to show initial symptoms of Sigatoka infection. This is important since this has a direct relationship with the degree of infection, since the youngest leaves are infected last. Under the test conditions, the plants produce approximately one new leaf per week.
# The severity of the disease (SEV) describes the direct percentage of visual disease on the plant.
# The youngest infected leaf and the severity of the disease were determined weekly after the first application. The data hereinbelow describe the results of the last determination measured at the end of the experiment, on Oct. 23, 2008. After the weekly determination, moreover, the data were compiled in the form of a graph, and the area under the disease progress curve (AUDPC) was calculated over the complete study period and is listed hereinbelow. Moreover, % severity was calculated as described by ABBOTT.
compound,measurement,setting,value
"N#Cc1ccccc1NC(=O)c1snc(Cl)c1Cl [Compound I-2, isotianil]",SEV last determ. (severity of the disease),50 g of a.i./ha,5.3%
same,YLI last determ. (youngest infected leaf),50 g of a.i./ha,4
same,SEV ABBOTT,50 g of a.i./ha,72.4%
same,SEV AUDPC,50 g of a.i./ha,314
same,YLI AUDPC,50 g of a.i./ha,223
same,SEV last determ. (severity of the disease),75 g of a.i./ha,5%
same,YLI last determ. (youngest infected leaf),75 g of a.i./ha,4
same,SEV ABBOTT,75 g of a.i./ha,74%
same,SEV AUDPC,75 g of a.i./ha,285
same,YLI AUDPC,75 g of a.i./ha,224
same,SEV last determ. (severity of the disease),100 g of a.i./ha,5.3%
same,YLI last determ. (youngest infected leaf),100 g of a.i./ha,4
same,SEV ABBOTT,100 g of a.i./ha,72.6%
same,SEV AUDPC,100 g of a.i./ha,313
same,YLI AUDPC,100 g of a.i./ha,119
